# Experimental data published in patent publication US20050208496A1, “Methods of testing for bronchial asthma or chronic obstructive pulmonary disease” (Genox Research, Inc., priority 2002, published 2005).
# Test system: mouse counterpart genes
# Assay: Mouse GeneChip (MG-U74A to MG-U74C) analysis of lung and trachea of the OVA antigen-exposed bronchial hypersensitivity model, S-Sal group versus S-OVA group
# Assay type: in vivo
# [1] = S-Sal group versus S-OVA group, MG-U74 chip A, 1st
# [2] = S-Sal group versus S-OVA group, MG-U74 chip A, 2nd
# [3] = S-Sal group versus S-OVA group, MG-U74 chip A, 3rd
# [4] = S-Sal group versus S-OVA group, MG-U74 chip B, 1st
# [5] = S-Sal group versus S-OVA group, MG-U74 chip B, 2nd
# [6] = S-Sal group versus S-OVA group, MG-U74 chip B, 3rd
# [7] = S-Sal group vs S-OVA group, 1st, chip A, P/A call A
# [8] = S-Sal group vs S-OVA group, 1st, chip A, P/A call P
# [9] = S-Sal group vs S-OVA group, 1st, chip B, P/A call A
# [10] = S-Sal group vs S-OVA group, 1st, chip B, P/A call P
# [11] = S-Sal group vs S-OVA group, 1st, chip C, P/A call P
# [12] = S-Sal group vs S-OVA group, 2nd, chip A, P/A call A
# [13] = S-Sal group vs S-OVA group, 2nd, chip A, P/A call P
# [14] = S-Sal group vs S-OVA group, 2nd, chip B, P/A call A
# [15] = S-Sal group vs S-OVA group, 2nd, chip B, P/A call P
# [16] = S-Sal group vs S-OVA group, 2nd, chip C, P/A call P
# [17] = S-Sal group vs S-OVA group, 3rd, chip A, P/A call A
substance,measurement,setting,value
"ovalbumin [OVA antigen, ovalbumin antigen used for sensitization and inhalation to induce bronchial hypersensitivity in mice]","Fold Change 1st, contactin 1 (mouse Probe ID 92936_at)",[1],1.3
same,"Fold Change 1st, lectin, galactose binding, soluble 1 (mouse Probe ID 99669_at)",[1],1.6
same,"Fold Change 1st, peptidyl arginine deiminase, type I (mouse Probe ID 95343_at)",[1],1.3
same,"Fold Change 1st, peptidyl arginine deiminase, type III (mouse Probe ID 103803_at)",[1],2.2
same,"Fold Change 2nd, contactin 1 (mouse Probe ID 92936_at)",[2],1.9
same,"Fold Change 2nd, lectin, galactose binding, soluble 1 (mouse Probe ID 99669_at)",[2],2
same,"Fold Change 2nd, peptidyl arginine deiminase, type I (mouse Probe ID 95343_at)",[2],0.83
same,"Fold Change 2nd, peptidyl arginine deiminase, type III (mouse Probe ID 103803_at)",[2],1.4
same,"Fold Change 3rd, contactin 1 (mouse Probe ID 92936_at)",[3],0.44
same,"Fold Change 3rd, lectin, galactose binding, soluble 1 (mouse Probe ID 99669_at)",[3],1.3
same,"Fold Change 3rd, peptidyl arginine deiminase, type I (mouse Probe ID 95343_at)",[3],0.67
same,"Fold Change 3rd, peptidyl arginine deiminase, type III (mouse Probe ID 103803_at)",[3],1.5
same,"Fold Change 1st, aquaporin 5 (mouse Probe ID 113916_at)",[4],0.77
same,"Fold Change 1st, contactin 1 (mouse Probe ID 105826_at)",[4],0.83
same,"Fold Change 1st, contactin 1 (mouse Probe ID 164059_f_at)",[4],1.7
same,"Fold Change 2nd, aquaporin 5 (mouse Probe ID 113916_at)",[5],0.83
same,"Fold Change 2nd, contactin 1 (mouse Probe ID 105826_at)",[5],1
same,"Fold Change 2nd, contactin 1 (mouse Probe ID 164059_f_at)",[5],0.91
same,"Fold Change 3rd, aquaporin 5 (mouse Probe ID 113916_at)",[6],0.59
same,"Fold Change 3rd, contactin 1 (mouse Probe ID 105826_at)",[6],1.1
same,"Fold Change 3rd, contactin 1 (mouse Probe ID 164059_f_at)",[6],0.77
same,"Fold Change 1st, contactin 1 (mouse Probe ID 170177_r_at)","S-Sal group versus S-OVA group, MG-U74 chip C, 1st",0.67
same,"Fold Change 2nd, contactin 1 (mouse Probe ID 170177_r_at)","S-Sal group versus S-OVA group, MG-U74 chip C, 2nd",1.1
same,"Fold Change 3rd, contactin 1 (mouse Probe ID 170177_r_at)","S-Sal group versus S-OVA group, MG-U74 chip C, 3rd",1.5
same,"Fold Change, AXL receptor tyrosine kinase (mouse probe 99136_at)",[7],0.357
same,"Fold Change, claudin 4 (mouse probe 101410_at)",[7],1.8
same,"Fold Change, histocompatibility-2 complex class I-like sequence (mouse probe 101433_at)",[7],0.526
same,"Fold Change, interferon gamma inducible protein 30 (mouse probe 97444_at)",[7],1.3
same,"Fold Change, interleukin 1 receptor-like 1 (mouse probe 98500_at)",[7],1.3
same,"Fold Change, low density lipoprotein receptor-related protein associated protein 1 (mouse probe 161988_f_at)",[7],1.3
same,"Fold Change, matrix metalloproteinase 7 (mouse probe 92917_at)",[7],2.3
same,"Fold Change, met proto-oncogene (mouse probe 100309_at)",[7],0.667
same,"Fold Change, phosphotidylinositol transfer protein, beta (mouse probe 102697_at)",[7],0.303
same,"Fold Change, A kinase anchor protein 2 (mouse probe 101435_at)",[8],0.833
same,"Fold Change, DNA segment. Chr 16. ERATO Doi 269, expressed (mouse probe 97822_at)",[8],1
same,"Fold Change, DNA segment. Chr 16. ERATO Doi 269, expressed (mouse probe 97823_g_at)",[8],1.1
same,"Fold Change, arachidonate 15-lipoxygenase (mouse probe 98758_at)",[8],1.1
same,"Fold Change, cholesterol 25-hydroxylase (mouse probe 104509_at)",[8],1.1
same,"Fold Change, claudin 5 (mouse probe 104516_at)",[8],1.1
same,"Fold Change, decay accelerating factor 1 (mouse probe 103617_at)",[8],1.2
same,"Fold Change, interferon-stimulated protein (20 kDa) (mouse probe 103432_at)",[8],1
same,"Fold Change, low density lipoprotein receptor-related protein associated protein 1 (mouse probe 100086_at)",[8],1.1
same,"Fold Change, membrane-associated protein 17 (mouse probe 96935_at)",[8],1
same,"Fold Change, phosphotidylinositol transfer protein, beta (mouse probe 102696_s_at)","S-Sal group vs S-OVA group, 1st, chip A, P/A call P, counterpart of human probe 353_at",1.3
same,"Fold Change, phosphotidylinositol transfer protein, beta (mouse probe 102696_s_at)","S-Sal group vs S-OVA group, 1st, chip A, P/A call P, counterpart of human probe 35017_f_at",1.3
same,"Fold Change, histocompatibility 2, Q region locus 7 (mouse probe 98438_f_at)","S-Sal group vs S-OVA group, 1st, chip A, P/A call P, counterpart of human probe 37420_i_at",1.3
same,"Fold Change, histocompatibility 2, Q region locus 7 (mouse probe 98438_f_at)","S-Sal group vs S-OVA group, 1st, chip A, P/A call P, counterpart of human probe 37421_f_at",1.3
same,"Fold Change, A kinase (PRKA) anchor protein 10 (mouse probe 163162_at)",[9],0.5
same,"Fold Change, ESTs Putative Ortholog of ISG-54K gene (mouse probe 164273_at)",[9],1
same,"Fold Change, ESTs, Highly similar to AF116721 8 PRO0907 [H. sapiens] (mouse probe 114151_at)",[9],1
same,"Fold Change, neurotrophic tyrosine kinase, receptor type 1 (mouse probe 110116_at)",[9],2.5
same,"Fold Change, secreted end transmembrane 1 (mouse probe 115133_at)",[9],0.435
same,"Fold Change, MP and activin membrane-bound inhibitor, homolog (Xanopus laevis) (mouse probe 162531_at)",[10],1
same,"Fold Change, decay accelerating factor 1 (mouse probe 107626_at)",[10],1.3
same,"Fold Change, viral hemorrhagic septicemia virus(VHSV) induced gene 1 (mouse probe 109385_at)",[10],0.769
same,"Fold Change, cholesterol 25-hydroxylase (mouse probe 133666_at)","S-Sal group vs S-OVA group, 1st, chip C, P/A call A",0.588
same,"Fold Change, deleted in bladder cancer chromosome region candidate 1 (human) Putative Ortholog (mouse probe 166806_at)",[11],1.4
same,"Fold Change, interferon-induced protein with tetratricopeptide repeats 1 (mouse probe 168299_f_at)",[11],1.3
same,"Fold Change, interleukin 1 receptor-like 1 (mouse probe 98501_at)","S-Sal group vs S-OVA group, 2nd, chip A",1.8
same,"Fold Change, AXL receptor tyrosine kinase (mouse probe 99136_at)",[12],0.476
same,"Fold Change, a disintegrin and metalloprotease domain 8 (mouse probe 103024_at)",[12],3.4
same,"Fold Change, claudin 4 (mouse probe 101410_at)",[12],3.4
same,"Fold Change, histocompatibility-2 complex class I-like sequence (mouse probe 101433_at)",[12],0.625
same,"Fold Change, interferon gamma inducible protein 30 (mouse probe 97444_at)",[12],1.9
same,"Fold Change, matrix metalloproteinase 7 (mouse probe 92917_at)",[12],1.6
same,"Fold Change, met proto-oncogene (mouse probe 100309_at)",[12],1
same,"Fold Change, phosphotidylinositol transfer protein, beta (mouse probe 102697_at)",[12],0.333
same,"Fold Change, matrix metalloproteinase 7 (mouse probe 162318_r_at)","S-Sal group vs S-OVA group, 2nd, chip A, P/A call M",1.7
same,"Fold Change, A kinase anchor protein 2 (mouse probe 101435_at)",[13],0.833
same,"Fold Change, DNA segment. Chr 16. ERATO Doi 269, expressed (mouse probe 97821_at)",[13],1
same,"Fold Change, DNA segment. Chr 16. ERATO Doi 269, expressed (mouse probe 97823_g_at)",[13],1.1
same,"Fold Change, arachidonate 15-lipoxygenase (mouse probe 98758_at)",[13],3.5
same,"Fold Change, cholesterol 25-hydroxylase (mouse probe 104509_at)",[13],3.1
same,"Fold Change, claudin 5 (mouse probe 104516_at)",[13],1.2
same,"Fold Change, decay accelerating factor 1 (mouse probe 103617_at)",[13],1.5
same,"Fold Change, interferon-stimulated protein (20 kDa) (mouse probe 103432_at)",[13],1.2
same,"Fold Change, interleukin 1 receptor-like 1 (mouse probe 98500_at)",[13],3.4
same,"Fold Change, polycystic kidney disease 2 (mouse probe 100951_at)",[13],0.667
same,"Fold Change, phosphotidylinositol transfer protein, beta (mouse probe 102696_s_at)","S-Sal group vs S-OVA group, 2nd, chip A, P/A call P, counterpart of human probe 353_at",1
same,"Fold Change, phosphotidylinositol transfer protein, beta (mouse probe 102696_s_at)","S-Sal group vs S-OVA group, 2nd, chip A, P/A call P, counterpart of human probe 35017_f_at",1
same,"Fold Change, histocompatibility 2, Q region locus 7 (mouse probe 98438_f_at)","S-Sal group vs S-OVA group, 2nd, chip A, P/A call P, counterpart of human probe 37420_i_at",1.4
same,"Fold Change, histocompatibility 2, Q region locus 7 (mouse probe 98438_f_at)","S-Sal group vs S-OVA group, 2nd, chip A, P/A call P, counterpart of human probe 37421_f_at",1.4
same,"Fold Change, ESTs Putative Ortholog of ISG-54K gene (mouse probe 164273_at)",[14],1
same,"Fold Change, ESTs, Highly similar to AF116721 8 PRO0907 [H. sapiens] (mouse probe 114151_at)",[14],1.2
same,"Fold Change, decay accelerating factor 1 (mouse probe 164905_r_at)",[14],1
same,"Fold Change, neurotrophic tyrosine kinase, receptor type 1 (mouse probe 110116_at)",[14],1.2
same,"Fold Change, secreted end transmembrane 1 (mouse probe 115133_at)",[14],0.5
same,"Fold Change, decay accelerating factor 1 (mouse probe 107626_at)",[15],1.6
same,"Fold Change, interferon gamma inducible protein 30 (mouse probe 164423_at)",[15],4
same,"Fold Change, viral hemorrhagic septicemia virus(VHSV) induced gene 1 (mouse probe 109385_at)",[15],1.7
same,"Fold Change, deleted in bladder cancer chromosome region candidate 1 (human) Putative Ortholog (mouse probe 166806_at)",[16],1.5
same,"Fold Change, interferon-induced protein with tetratricopeptide repeats 1 (mouse probe 168299_f_at)",[16],1.1
same,"Fold Change, interleukin 1 receptor-like 1 (mouse probe 98501_at)","S-Sal group vs S-OVA group, 3rd, chip A",1
same,"Fold Change, AXL receptor tyrosine kinase (mouse probe 99136_at)",[17],0.25
same,"Fold Change, a disintegrin and metalloprotease domain 28 (mouse probe 101723_r_at)",[17],1.8
same,"Fold Change, histocompatibility-2 complex class I-like sequence (mouse probe 101433_at)",[17],0.833
